How the values were obtained:
Experiment in all cases: relative viability (nuclei count vs DMSO), 5 days (fraction); higher = more cells survive
SW 900 = system: SW 900
Procedure, shortened: (§1)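 Cells from lung cancer lines were seeded into 1536-well plates and, one day later, dosed by pin tool. Treatments were either a single drug or a fixed dose of an anchor drug with five library-drug doses (not always all listed) in √10 steps. After 5 days, nuclei were stained in a one-step fixation (final 0.05% Triton X-100, 1% formaldehyde, 1 ug/ml Hoechst) and counted on 4× images, and relative viability is the treated-to-vehicle nuclei ratio, as the median of duplicate plates.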

H3255 = system: H3255
Procedure, shortened: as §1

NCI-H1563 = system: NCI-H1563
Procedure, shortened: as §1

NCI-H1650 = system: NCI-H1650
Procedure, shortened: as §1

LOU-NH91 = system: LOU-NH91
Procedure, shortened: as §1

NCI-H2023 = system: NCI-H2023
Procedure, shortened: as §1

EPLC-272H = system: EPLC-272H
Procedure, shortened: as §1

NCI-H1734 = system: NCI-H1734
Procedure, shortened: as §1

201T = system: 201T
Procedure, shortened: as §1

NCI-H2085 = system: NCI-H2085
Procedure, shortened: as §1

RERF-LC-KJ = system: RERF-LC-KJ
Procedure, shortened: as §1

COR-L23 = system: COR-L23
Procedure, shortened: as §1

NCI-H2170 = system: NCI-H2170
Procedure, shortened: as §1

NCI-H647 = system: NCI-H647
Procedure, shortened: as §1

NCI-H1993 = system: NCI-H1993
Procedure, shortened: as §1

NCI-H3122 = system: NCI-H3122
Procedure, shortened: as §1

NCI-H441 = system: NCI-H441
Procedure, shortened: as §1

NCI-H1793 = system: NCI-H1793
Procedure, shortened: as §1

PC-14 = system: PC-14
Procedure, shortened: as §1

NCI-H520 = system: NCI-H520
Procedure, shortened: as §1

NCI-H2405 = system: NCI-H2405
Procedure, shortened: as §1

NCI-H2347 = system: NCI-H2347
Procedure, shortened: as §1

Structure (SMILES): Oc1nc(-c2ccc(C(F)(F)F)cc2)nc2c1CSCC2 [XAV939] + COc1cc2c(Oc3ccc(NC(=O)C4(C(=O)Nc5ccc(F)cc5)CC4)cc3F)ccnc2cc1OCCCN1CCOCC1 [Foretinib] (partner 0.25 µM)
- relative viability (SW 900; first compound 0.08 µM): 0.848
- relative viability (SW 900; first compound 0.253 µM): 0.765
- relative viability (SW 900; first compound 0.8 µM): 0.767
- relative viability (SW 900; first compound 2.53 µM): 0.82
- relative viability (H3255; first compound 0.08 µM): 0.845
- relative viability (H3255; first compound 0.253 µM): 0.825
- relative viability (H3255; first compound 0.8 µM): 0.803
- relative viability (H3255; first compound 2.53 µM): 0.851
- relative viability (NCI-H1563; first compound 0.08 µM): 1.02
- relative viability (NCI-H1563; first compound 0.253 µM): 0.905
- relative viability (NCI-H1563; first compound 0.8 µM): 0.831
- relative viability (NCI-H1563; first compound 2.53 µM): 0.678
- relative viability (NCI-H1650; first compound 0.08 µM): 1.16
- relative viability (NCI-H1650; first compound 0.253 µM): 1.25
- relative viability (NCI-H1650; first compound 0.8 µM): 1.09
- relative viability (NCI-H1650; first compound 2.53 µM): 0.625
- relative viability (LOU-NH91; first compound 0.08 µM): 0.932
- relative viability (LOU-NH91; first compound 0.253 µM): 0.918
- relative viability (LOU-NH91; first compound 0.8 µM): 0.903
- relative viability (LOU-NH91; first compound 2.53 µM): 0.891
- relative viability (NCI-H2023; first compound 0.08 µM): 0.847
- relative viability (NCI-H2023; first compound 0.253 µM): 0.756
- relative viability (NCI-H2023; first compound 0.8 µM): 0.659
- relative viability (NCI-H2023; first compound 2.53 µM): 0.514
- relative viability (EPLC-272H; first compound 0.08 µM): 0.808
- relative viability (EPLC-272H; first compound 0.253 µM): 0.603
- relative viability (EPLC-272H; first compound 0.8 µM): 0.672
- relative viability (EPLC-272H; first compound 2.53 µM): 0.548
- relative viability (NCI-H1734; first compound 0.08 µM): 0.953
- relative viability (NCI-H1734; first compound 0.253 µM): 0.784
- relative viability (NCI-H1734; first compound 0.8 µM): 0.913
- relative viability (NCI-H1734; first compound 2.53 µM): 0.829
- relative viability (201T; first compound 0.08 µM): 0.88
- relative viability (201T; first compound 0.253 µM): 0.705
- relative viability (201T; first compound 0.8 µM): 0.861
- relative viability (201T; first compound 2.53 µM): 0.746
- relative viability (NCI-H2085; first compound 0.08 µM): 1.06
- relative viability (NCI-H2085; first compound 0.253 µM): 1.11
- relative viability (NCI-H2085; first compound 0.8 µM): 0.772
- relative viability (NCI-H2085; first compound 2.53 µM): 0.893
- relative viability (RERF-LC-KJ; first compound 0.08 µM): 0.781
- relative viability (RERF-LC-KJ; first compound 0.253 µM): 0.738
- relative viability (RERF-LC-KJ; first compound 0.8 µM): 0.792
- relative viability (RERF-LC-KJ; first compound 2.53 µM): 0.681
- relative viability (COR-L23; first compound 0.08 µM): 1.13
- relative viability (COR-L23; first compound 0.253 µM): 0.96
- relative viability (COR-L23; first compound 0.8 µM): 0.948
- relative viability (COR-L23; first compound 2.53 µM): 0.903
- relative viability (NCI-H2170; first compound 0.08 µM): 1.03
- relative viability (NCI-H2170; first compound 0.253 µM): 1.01
- relative viability (NCI-H2170; first compound 0.8 µM): 0.979
- relative viability (NCI-H2170; first compound 2.53 µM): 0.864
- relative viability (NCI-H647; first compound 0.08 µM): 1.21
- relative viability (NCI-H647; first compound 0.253 µM): 0.958
- relative viability (NCI-H647; first compound 0.8 µM): 0.991
- relative viability (NCI-H647; first compound 2.53 µM): 0.609
- relative viability (NCI-H1993; first compound 0.08 µM): 0.753
- relative viability (NCI-H1993; first compound 0.253 µM): 0.7
- relative viability (NCI-H1993; first compound 0.8 µM): 0.688
- relative viability (NCI-H1993; first compound 2.53 µM): 0.65
- relative viability (NCI-H3122; first compound 0.08 µM): 0.926
- relative viability (NCI-H3122; first compound 0.253 µM): 0.918
- relative viability (NCI-H3122; first compound 0.8 µM): 0.942
- relative viability (NCI-H3122; first compound 2.53 µM): 0.909
- relative viability (NCI-H441; first compound 0.08 µM): 1.15
- relative viability (NCI-H441; first compound 0.253 µM): 0.891
- relative viability (NCI-H441; first compound 0.8 µM): 1.19
- relative viability (NCI-H441; first compound 2.53 µM): 1.02
- relative viability (NCI-H1793; first compound 0.08 µM): 0.846
- relative viability (NCI-H1793; first compound 0.253 µM): 0.558
- relative viability (NCI-H1793; first compound 0.8 µM): 0.63
- relative viability (NCI-H1793; first compound 2.53 µM): 0.454
- relative viability (PC-14; first compound 0.08 µM): 0.945
- relative viability (PC-14; first compound 0.253 µM): 0.869
- relative viability (PC-14; first compound 0.8 µM): 0.885
- relative viability (PC-14; first compound 2.53 µM): 0.905
- relative viability (NCI-H520; first compound 0.08 µM): 0.781
- relative viability (NCI-H520; first compound 0.253 µM): 0.694
- relative viability (NCI-H520; first compound 0.8 µM): 0.677
- relative viability (NCI-H520; first compound 2.53 µM): 0.626
- relative viability (NCI-H2405; first compound 0.08 µM): 0.99
- relative viability (NCI-H2405; first compound 0.253 µM): 1.01
- relative viability (NCI-H2405; first compound 0.8 µM): 1.03
- relative viability (NCI-H2405; first compound 2.53 µM): 1.01
- relative viability (NCI-H2347; first compound 0.08 µM): 0.797
- relative viability (NCI-H2347; first compound 0.253 µM): 0.803
- relative viability (NCI-H2347; first compound 0.8 µM): 0.786
- relative viability (NCI-H2347; first compound 2.53 µM): 0.354

From the supplement of paper PMC10307832
